This note sets out measurements from publication PMC10720369 (Frontiers in Plant Science, 2023).

The structures appear in SMILES notation.

The assay concerns ScAMT3;3. The settings on record: labelled compound; 0-500 µM 15N-NH4+; 35-d-old N-starved plants; line 35S::ScAMT3;3 by results and Figure 4C (methods b28 say proScAMT3;3 line); residual qko uptake present; NH3 may be the transported.

In the case of `N` [NH4+], the Km is 271 µM.

For orientation: Km means the concentration of substrate that gives half-maximal velocity.
